These results are taken from patent US9783536B2, “Nitrogen-containing heterocyclic compound or salt thereof” (FUJIFILM Corporation, priority 2013, dated 2017).

The structures appear in SMILES notation. Counter-ions that a name gives are not always drawn. Some results are limits rather than exact numbers.

Holding throughout (format): biochemical
For one test, the target named is T1, human PI3Kα protein (Homo sapiens, UniProt P42336).
T1 construct: purchased Carna Biosciences, Inc; host or cells: baculovirus expression system
The test is described as follows: PI3Kα enzyme assay (ADP-Glo). Conditions: 4.5 nmol/L PI3Kα, PIP2 50 μmol/L, ATP 100 μmol/L; read-out: PI3Kα enzyme inhibitory activity. In outline:
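Biotinylated human PI3Kα (baculovirus-expressed, 4.5 nmol/L) pre-incubated 15 min with compound in Tris-HCl pH 7.5, MgCl2, BSA; reaction 60 min at 25° C with 50 μmol/L PIP2 and 100 μmol/L ATP final. ADP quantified by ADP-Glo luminescence; IC50 calculated.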

Test [1] has as its target T2, GST fusion human ERK2 protein (Homo sapiens, UniProt P28482).
T2 construct: purchased Carna Biosciences, Inc; host or cells: E. coli expression system
Put plainly: ERK2 enzyme assay (1). The note with it: read-out: ERK2 enzyme inhibitory activity (1). The essentials: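 IC50 derived from the proportion of phosphorylated 5-FAM peptide, separated from unphosphorylated peptide by microfluidic mobility shift. Compound was first preincubated 15 min at room temperature with 2.5 nmol/L kinase at pH 7.5, then 43.1 μmol/L ATP plus 4.25 μmol/L substrate reacted 120 min at 25 °C.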

The target of test [2] is T2, GST fusion human ERK2 protein. Put plainly: ERK2 enzyme assay (2). Conditions: read-out: ERK2 enzyme inhibitory activity (2). The essentials: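 IC50 values come from mobility-shift measurement of phosphorylated versus unphosphorylated 5-FAM peptide substrate after EDTA quench. Beforehand, compound and 1.25 nmol/L E. coli-expressed GST–human ERK2 stood 15 min at room temperature (pH 7.5), then 1 mmol/L ATP and 4.25 μmol/L substrate (final) were added for 120 min at 25 °C.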

The mark [3] stands for this setting: 2.5 nmol/L ERK2, ATP 43.1 μmol/L.

T1 sequence (P42336 whole entry): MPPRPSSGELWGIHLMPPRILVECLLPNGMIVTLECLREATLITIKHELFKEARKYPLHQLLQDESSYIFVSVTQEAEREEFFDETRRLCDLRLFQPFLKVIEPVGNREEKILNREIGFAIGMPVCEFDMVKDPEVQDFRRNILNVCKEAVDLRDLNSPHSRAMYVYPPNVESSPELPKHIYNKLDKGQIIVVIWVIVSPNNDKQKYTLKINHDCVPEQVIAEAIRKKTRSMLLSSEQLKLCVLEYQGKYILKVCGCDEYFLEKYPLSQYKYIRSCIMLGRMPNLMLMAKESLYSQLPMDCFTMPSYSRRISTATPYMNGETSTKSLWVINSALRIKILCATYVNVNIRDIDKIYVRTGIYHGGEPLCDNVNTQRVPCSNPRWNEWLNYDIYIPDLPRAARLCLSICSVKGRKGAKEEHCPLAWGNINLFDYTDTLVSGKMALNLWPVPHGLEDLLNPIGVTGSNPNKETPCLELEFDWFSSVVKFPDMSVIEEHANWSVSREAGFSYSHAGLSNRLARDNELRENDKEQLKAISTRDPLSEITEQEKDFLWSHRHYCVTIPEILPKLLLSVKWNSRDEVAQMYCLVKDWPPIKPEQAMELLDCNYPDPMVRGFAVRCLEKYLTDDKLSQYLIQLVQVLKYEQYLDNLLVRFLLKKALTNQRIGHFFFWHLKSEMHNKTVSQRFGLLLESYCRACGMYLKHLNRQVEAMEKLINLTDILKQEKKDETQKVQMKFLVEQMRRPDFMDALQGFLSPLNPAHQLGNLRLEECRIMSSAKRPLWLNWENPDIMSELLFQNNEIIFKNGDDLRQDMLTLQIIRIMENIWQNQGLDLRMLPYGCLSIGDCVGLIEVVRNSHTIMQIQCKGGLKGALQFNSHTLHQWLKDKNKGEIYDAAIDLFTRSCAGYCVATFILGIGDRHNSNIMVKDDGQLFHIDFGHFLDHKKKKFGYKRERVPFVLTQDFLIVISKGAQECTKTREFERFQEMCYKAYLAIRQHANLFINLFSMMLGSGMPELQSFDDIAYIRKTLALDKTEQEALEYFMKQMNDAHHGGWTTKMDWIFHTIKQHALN
T1 sequence (P27986 whole entry partner): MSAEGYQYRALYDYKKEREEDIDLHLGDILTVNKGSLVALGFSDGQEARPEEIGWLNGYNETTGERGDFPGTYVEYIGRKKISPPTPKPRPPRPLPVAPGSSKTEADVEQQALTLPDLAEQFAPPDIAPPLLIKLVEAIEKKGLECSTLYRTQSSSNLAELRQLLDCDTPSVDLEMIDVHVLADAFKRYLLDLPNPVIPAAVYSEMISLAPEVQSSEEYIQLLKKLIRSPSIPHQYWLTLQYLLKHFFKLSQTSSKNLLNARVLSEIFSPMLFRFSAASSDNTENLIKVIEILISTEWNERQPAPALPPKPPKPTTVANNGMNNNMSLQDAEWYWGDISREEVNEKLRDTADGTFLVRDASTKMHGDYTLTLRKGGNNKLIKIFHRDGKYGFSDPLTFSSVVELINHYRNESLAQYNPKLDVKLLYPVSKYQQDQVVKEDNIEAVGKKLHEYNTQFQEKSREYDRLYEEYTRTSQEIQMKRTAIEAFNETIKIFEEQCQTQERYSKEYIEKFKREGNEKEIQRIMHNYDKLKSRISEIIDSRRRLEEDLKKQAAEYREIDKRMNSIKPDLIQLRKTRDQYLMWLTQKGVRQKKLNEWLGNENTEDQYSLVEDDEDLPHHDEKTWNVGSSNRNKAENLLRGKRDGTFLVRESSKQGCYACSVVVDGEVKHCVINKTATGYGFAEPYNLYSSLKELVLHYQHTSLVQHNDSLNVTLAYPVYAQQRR
T2 sequence (P28482 whole entry, the tested form may be a part): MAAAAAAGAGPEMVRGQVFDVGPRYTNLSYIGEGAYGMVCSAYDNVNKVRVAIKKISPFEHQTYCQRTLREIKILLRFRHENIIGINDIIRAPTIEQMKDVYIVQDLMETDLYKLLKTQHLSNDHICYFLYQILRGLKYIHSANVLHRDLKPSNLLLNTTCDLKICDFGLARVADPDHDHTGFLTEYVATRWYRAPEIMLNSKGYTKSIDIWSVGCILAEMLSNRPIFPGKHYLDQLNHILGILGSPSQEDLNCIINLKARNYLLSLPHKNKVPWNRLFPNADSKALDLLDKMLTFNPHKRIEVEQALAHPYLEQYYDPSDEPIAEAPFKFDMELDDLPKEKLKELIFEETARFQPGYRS

With `CC(C)c1cnnc(Nc2ccc3ncc(-c4cnn(C)c4)nc3n2)c1` [Example 0014, N-(5-isopropylpyridazin-3-yl)-3-(1-methyl-1H-pyrazol-4-yl)pyrido[2,3-b]pyrazine-6-amine], the IC50 at human PI3Kα protein is < 1 µM; in test [1] (setting [3]), < 1 µM; in test [2] (1.25 nmol/L ERK2, ATP 1 mmol/L) it was < 1 µM.

As for `c1nc2ccc(Nc3cc(C4CCCC4)cnn3)nc2cc1-c1cnn(CCCN2CCCC2)c1` [Example 0016], the IC50 at human PI3Kα protein was < 1 µM; in test [1] (setting [3]), < 1 µM; in test [2] (1.25 nmol/L ERK2, ATP 1 mmol/L), < 1 µM.

As for `c1nc2ccc(Nc3cc(C4CCCCC4)cnn3)nc2cc1-c1cnn(CCCN2CCCC2)c1` [Example 0017], the IC50 at human PI3Kα protein is < 1 µM; in test [1] (setting [3]), < 1 µM; in test [2] (1.25 nmol/L ERK2, ATP 1 mmol/L), < 1 µM.

For the compound `CC(C)c1cnnc(Nc2ccc3ncc(-c4cnn(CCCN5CCN(C)CC5)c4)cc3n2)c1` [Example 0021, N-(5-isopropylpyridazin-3-yl)-7-(1-(3-(4-methylpiperazin-1-yl)propyl)-1H-pyrazol-4-yl)-1,5-naphthyridine-2-amine], the IC50 on human PI3Kα protein is < 1 µM; in test [1] (setting [3]) it was < 1 µM; in test [2] (1.25 nmol/L ERK2, ATP 1 mmol/L) it was < 1 µM.

On to `C[Si](C)(C)CCOCn1cc(-c2cnc3ccc(Nc4nncs4)nc3c2)cn1` [Example 0025, N-(7-(1-((2-(trimethylsilyl)ethoxy)methyl)-1H-pyrazol-4-yl)-1,5-naphthyridin-2-yl)-1,3,4-thiadiazole-2-amine], for which the IC50 at human PI3Kα protein was 1 to 10 µM; in test [1] (setting [3]) it was < 1 µM; in test [2] (1.25 nmol/L ERK2, ATP 1 mmol/L), < 1 µM.

As to `Cn1cc(-c2cnc3ccc(Nc4nncs4)nc3c2)cn1` [Example 0026, N-(7-(1-methyl-1H-pyrazol-4-yl)-1,5-naphthyridin-2-yl)-1,3,4-thiadiazole-2-amine], the IC50 on human PI3Kα protein was < 1 µM; in test [1] (setting [3]), < 1 µM; in test [2] (1.25 nmol/L ERK2, ATP 1 mmol/L), < 1 µM.

In the case of `c1nnc(Nc2ccc3ncc(-c4cn[nH]c4)cc3n2)s1` [Example 0032, N-(7-(1H-pyrazol-4-yl)-1,5-naphthyridin-2-yl)-1,3,4-thiadiazole-2-amine hydrochloride], the IC50 on human PI3Kα protein is < 1 µM; in test [1] (setting [3]) it was < 1 µM; in test [2] (1.25 nmol/L ERK2, ATP 1 mmol/L), < 1 µM.

For the compound `CN(c1cccnc1)c1cnc2ccc(Nc3nnc(C4CCCC4)s3)nc2c1` [Example 0071], the IC50 at human PI3Kα protein was < 1 µM; in test [1] (setting [3]), < 1 µM; in test [2] (1.25 nmol/L ERK2, ATP 1 mmol/L) it was < 1 µM.

Take `COc1cncc(Nc2cnc3ccc(Nc4nnc(C5CCCC5)s4)nc3c2)c1` [Example 0072]: the IC50 at human PI3Kα protein is < 1 µM; in test [1] (setting [3]), < 1 µM; in test [2] (1.25 nmol/L ERK2, ATP 1 mmol/L), < 1 µM.

With `c1ncc(OCCCN2CCOCC2)cc1Nc1cnc2ccc(Nc3nnc(C4CCCC4)s3)nc2c1` [Example 0084], the IC50 is < 1 µM at human PI3Kα protein; < 1 µM in test [1] (setting [3]); < 1 µM in test [2] (1.25 nmol/L ERK2, ATP 1 mmol/L).

As to `c1cc(CN2CCOCC2)ncc1Nc1cnc2ccc(Nc3nnc(C4CCCC4)s3)nc2c1` [Example 0085], the IC50 at human PI3Kα protein was < 1 µM; in test [1] (setting [3]), < 1 µM; in test [2] (1.25 nmol/L ERK2, ATP 1 mmol/L) it was < 1 µM.

Regarding `c1cc(CN2CCCC2)ncc1Nc1cnc2ccc(Nc3nnc(C4CCCC4)s3)nc2c1` [Example 0086], the IC50 at human PI3Kα protein was < 1 µM; in test [1] (setting [3]) it was < 1 µM; in test [2] (1.25 nmol/L ERK2, ATP 1 mmol/L) it was < 1 µM.

In the case of `c1ncc(OCCCN2CCCC2)cc1Nc1cnc2ccc(Nc3nnc(C4CCCC4)s3)nc2c1` [Example 0087], the IC50 on human PI3Kα protein was < 1 µM; in test [1] (setting [3]), < 1 µM; in test [2] (1.25 nmol/L ERK2, ATP 1 mmol/L) it was < 1 µM.

As to `c1cc(Nc2cnc3ccc(Nc4nnc(C5CCCC5)s4)nc3c2)cnn1` [Example 0088], the IC50 is < 1 µM on human PI3Kα protein; < 1 µM in test [1] (setting [3]); < 1 µM in test [2] (1.25 nmol/L ERK2, ATP 1 mmol/L).

As for `c1ncc(Nc2cnc3ccc(Nc4nnc(C5CCCC5)s4)nc3c2)cn1` [Example 0089], the IC50 is < 1 µM at human PI3Kα protein; < 1 µM in test [1] (setting [3]); < 1 µM in test [2] (1.25 nmol/L ERK2, ATP 1 mmol/L).

In the case of `c1ncc(N2CCOCC2)cc1Nc1cnc2ccc(Nc3nnc(C4CCCC4)s3)nc2c1` [Example 0090], the IC50 is < 1 µM at human PI3Kα protein; < 1 µM in test [1] (setting [3]); < 1 µM in test [2] (1.25 nmol/L ERK2, ATP 1 mmol/L).

In the case of `c1nc2ccc(Nc3nnc(C4CCCC4)s3)nc2cc1N1CCn2cnnc2C1` [Example 0091], the IC50 was < 1 µM on human PI3Kα protein; < 1 µM in test [1] (setting [3]); < 1 µM in test [2] (1.25 nmol/L ERK2, ATP 1 mmol/L).

Regarding `COC1CN(c2cnc3ccc(Nc4nnc(C5CCCC5)s4)nc3c2)C1` [Example 0092], the IC50 at human PI3Kα protein was 1 to 10 µM; in test [1] (setting [3]) it was < 1 µM; in test [2] (1.25 nmol/L ERK2, ATP 1 mmol/L), < 1 µM.

As for `c1cc(OC2CCOCC2)ncc1Nc1cnc2ccc(Nc3nnc(C4CCCC4)s3)nc2c1` [Example 0093], the IC50 was 1 to 10 µM at human PI3Kα protein; < 1 µM in test [1] (setting [3]); 10 to 50 µM in test [2] (1.25 nmol/L ERK2, ATP 1 mmol/L).

Turning to `c1ccc2ncc(Nc3cnc4ccc(Nc5nnc(C6CCCC6)s5)nc4c3)cc2c1` [Example 0094], the IC50 was < 1 µM on human PI3Kα protein; 10 to 50 µM in test [1] (setting [3]); 10 to 50 µM in test [2] (1.25 nmol/L ERK2, ATP 1 mmol/L).

On to `CC(C)c1nnc(Nc2ccc3ncc(Nc4cncnc4)cc3n2)s1` [Example 0095], for which the IC50 at human PI3Kα protein is < 1 µM; in test [1] (setting [3]) it was < 1 µM; in test [2] (1.25 nmol/L ERK2, ATP 1 mmol/L) it was 1 to 10 µM.

As for `CC(C)c1nnc(Nc2ccc3ncc(Nc4ccc(CN5CCOCC5)nc4)cc3n2)s1` [Example 0096], the IC50 on human PI3Kα protein is < 1 µM; in test [1] (setting [3]) it was < 1 µM; in test [2] (1.25 nmol/L ERK2, ATP 1 mmol/L) it was < 1 µM.

Regarding `CCCc1nn(C)cc1-c1cnc2ccc(Nc3nnc(C4CCCC4)s3)nc2c1` [Example 0112], the IC50 on human PI3Kα protein is < 1 µM; in test [1] (setting [3]), < 1 µM; in test [2] (1.25 nmol/L ERK2, ATP 1 mmol/L), < 1 µM.

For the compound `COc1nn(C)cc1-c1cnc2ccc(Nc3nnc(C4CCCC4)s3)nc2c1` [Example 0114], the IC50 on human PI3Kα protein is < 1 µM; in test [1] (setting [3]), < 1 µM; in test [2] (1.25 nmol/L ERK2, ATP 1 mmol/L), < 1 µM.

For the compound `CCCCc1nn(C)cc1-c1cnc2ccc(Nc3nnc(C4CCCC4)s3)nc2c1` [Example 0115], the IC50 on human PI3Kα protein was < 1 µM; in test [1] (setting [3]), < 1 µM; in test [2] (1.25 nmol/L ERK2, ATP 1 mmol/L) it was < 1 µM.

Regarding `c1nc(CN2CCOCC2)ncc1Nc1cnc2ccc(Nc3nnc(C4CCCC4)s3)nc2c1` [Example 0116], the IC50 at human PI3Kα protein was < 1 µM; in test [1] (setting [3]) it was < 1 µM; in test [2] (1.25 nmol/L ERK2, ATP 1 mmol/L), < 1 µM.

Take `c1nc2ccc(Nc3nnc(C4CCCC4)s3)nc2cc1-c1cnn(CCCN2CCOCC2)c1` [Example 0117]: the IC50 was < 1 µM on human PI3Kα protein; < 1 µM in test [1] (setting [3]); < 1 µM in test [2] (1.25 nmol/L ERK2, ATP 1 mmol/L).

Take `CC(C)c1nnc(Nc2ccc3ncc(-c4cnn(CCCN5CCOCC5)c4)cc3n2)s1` [Example 0118]: the IC50 on human PI3Kα protein is < 1 µM; in test [1] (setting [3]) it was < 1 µM; in test [2] (1.25 nmol/L ERK2, ATP 1 mmol/L), < 1 µM.

On to `Cn1cc(-c2cc3nc(Nc4nnc(C5CCCC5)s4)ccc3nc2Cl)cn1` [Example 0349, N-(6-chloro-7-(1-methyl-1H-pyrazol-4-yl)-1,5-naphthyridin-2-yl)-5-cyclopentyl-1,3,4-thiadiazole-2-amine], for which the IC50 was < 1 µM in test [1] (ERK2 enzyme assay (1)) and 1 to 10 µM in test [2] (ERK2 enzyme assay (2)).

Consider `CCOc1nc2ccc(Nc3nnc(C4CCCC4)s3)nc2cc1-c1cnn(C)c1` [Example 0357, 5-Cyclopentyl-N-(6-ethoxy-7-(1-methyl-1H-pyrazol-4-yl)-1,5-naphthyridin-2-yl)-1,3,4-thiadiazole-2-amine], for which the IC50 in test [1] (ERK2 enzyme assay (1)) and in test [2] (ERK2 enzyme assay (2)) was 1 to 10 µM throughout.
